Test results as given in US8466089B2, “Pyrazole compounds, process for their production and herbicides containing them” (Ishihara Sangyo Kaisha, Ltd., priority 2008, dated 2013).
Like-named read-outs stand apart in the source and are kept apart here.

How the values were obtained:
Format in all cases: in vivo
[1] = test system: giant foxtail (Setaria faberi Herrm.); assay: Test Example 5, foliar treatment versus Reference Compounds; settings: 4.0 to 4.5 leaf stage, 20th day after application, read-out: Growth inhibition rate (%) (20th day after application) Giant foxtail
Source text: (§1) Upland field soil was put into a 1/1,000,000 hectare pot, and seeds of various plants were sown. When the respective plants reached predetermined leaf stage ((1) velvetleaf (Abutilon theophrasti MEDIC.): 3.0 to 3.5 leaf stage, (2) giant foxtail (Setaria faberi Herrm.): 4.0 to 4.5 leaf stage, (3) green foxtail (Setaria viridis L.): 5.0 to 5.5 leaf stage, and (4) corn (Zea mays L.): 4.0 to 4.3 leaf stage, a wettable powder of compound No. 2-1 of the above-mentioned present invention, a wettable powder of the above-mentioned Reference Compound 1 and a wettable powder of the above-mentioned Reference Compound 2, prepared in accordance with a conventional preparation method, were weighed so that the active ingredients became the prescribed amounts, and diluted with water in an amount corresponding to 300 liter per 1 hectare (containing 0.5 vol % of an agricultural spreader (Destiny HC: WINFIELD SOLUTIONS by LLC). The spray solutions thus prepared were applied for foliar treatment by a small sprayer.
(§2) On the 7th to 20th day after application, the state of growth of the respective plants was visually observed, and the herbicidal effect was evaluated by a growth inhibition rate (%) of 0 (equivalent to the non-treated area) to 100% (complete kill).

[2] = test system: green foxtail (Setaria viridis L.); assay: as above; settings: 5.0 to 5.5 leaf stage, 18th day after application, read-out: Growth inhibition rate (%) (18th day after application) Green foxtail
Source text: as §1, §2

[3] = test system: velvetleaf (Abutilon theophrasti MEDIC.); assay: as above; settings: 3.0 to 3.5 leaf stage, 20th day after application, read-out: Growth inhibition rate (%) (20th day after application) Velvet leaf
Source text: as §1, §2

[4] = test system: sorgo (Sorghum bicolor Moench) (var.: Lucky Sorgo); assay: Test Example 6, soil column downward movement, sorgo bioassay; settings: 14th day after sowing
Description: Soil (sterilized soil:sand=3:1) was packed (4 L) into a column (9.5 cm in diameter×40 cm in height, application area: 0.007 m^2), and tap water was dropped from above by a Peristaltic pump before application of the herbicide for the purpose of maintaining the soil moisture to be uniform. Then, 10 mL of a spray solution prepared so that each agent (Compound No. 2-1, the above Reference Compounds 1 and 2) would be at a concentration corresponding to 250 g/ha was dropwise applied by a pipette. After application, water was dropped again at a rate of 400 mL/hr for about 3 hours by means of a Peristaltic pump. After the dropping, the column was left to stand for 1 day, and then the column was vertically evenly divided and seeds of sorgo (Sorghum bicolor Moench) (var.: Lucky Sorgo) were sown in a row. On the 14th day after sowing, the state of growth of the plant was visually observed at 3 cm intervals from the application point of the agent, whereby the germination and the degree of growth were evaluated by a growth inhibition rate (%) of 0 (equivalent to the non-treated area) to 100% (complete kill) to obtain the results in Table 17.
From the above results, the growth inhibition rates of Reference Compounds No. 1 and No. 2 are observed in depths deeper than that of Compound No. 2-1. […] Whereas, Compound No. 2-1 stayed at a shallow portion of soil (in a layer of from 0 to 9 cm).

[5] = test system: barnyardgrass (Echinochloa crus-galli L.); assay: Test Example 1, foliar treatment in upland pots; settings: 20th to 22nd day after application, visual, read-out: Growth inhibition rate (%) Barnyardgrass
Source text: (§3) Upland field soil was put into a 1/170,000 hectare pot, and seeds of various plants were sown. When the respective plants reached predetermined leaf stage ((1) barnyardgrass (Echinochloa crus-galli L.): 1.2 to 3.0 leaf stage, (2) crabgrass (Digitaria sanguinalis L.): 1.0 to 3.0 leaf stage, (3) green foxtail (Setaria viridis L.): 1.5 to 3.0 leaf stage, (4) redroot pigweed (Amaranthus retroflexus L.): cotyledon stage to 1.5 leaf stage, (5) prickly sida (Sida spinosa L.): cotyledon stage to 2.0 leaf stage, (6) velvetleaf (Abutilon theophrasti MEDIC.): cotyledon stage to 1.3 leaf stage, (7) rice (Oryza sativa L.): 1.2 to 2.5 leaf stage, (8) corn (Zea mays L.): 2.0 to 3.3 leaf stage, (9) soybean (Glycine max Merr.): primary leaf stage to 0.3 leaf stage) and wheat (Triticum spp.): 2.0 to 3.0 leaf stage, wettable powders or emulsifiable concentrates of the compounds of the present invention prepared in accordance with a conventional preparation method, were weighed so that the active ingredients became the prescribed amounts, and diluted with water in an amount corresponding to 500 liter per 1 hectare (containing 0.1 vol % of an agricultural spreader (“KUSARINOH”, manufactured by NIHON NOHYAKU CO., LTD.)). The spray solutions thus prepared were applied for foliar treatment by a small sprayer.
(§4) On the 20th to 22nd day after application, the state of growth of the respective plants was visually observed, and the herbicidal effect was evaluated by a growth inhibition rate (%) of 0 (equivalent to the non-treated area) to 100% (complete kill).

corn (Zea mays L.) [6] = assay: Test Example 1, foliar treatment in upland pots; settings: 20th to 22nd day after application, visual, read-out: Growth inhibition rate (%) Corn
Source text: as §3, §4

[7] = test system: crabgrass (Digitaria sanguinalis L.); assay: Test Example 1, foliar treatment in upland pots; settings: 20th to 22nd day after application, visual, read-out: Growth inhibition rate (%) Crabgrass
Source text: as §3, §4

[8] = test system: green foxtail (Setaria viridis L.); assay: Test Example 1, foliar treatment in upland pots; settings: 20th to 22nd day after application, visual, read-out: Growth inhibition rate (%) Green foxtail
Source text: as §3, §4

[9] = test system: prickly sida (Sida spinosa L.); assay: Test Example 1, foliar treatment in upland pots; settings: 20th to 22nd day after application, visual, read-out: Growth inhibition rate (%) Prickly sida
Source text: as §3, §4

[10] = test system: redroot pigweed (Amaranthus retroflexus L.); assay: Test Example 1, foliar treatment in upland pots; settings: 20th to 22nd day after application, visual, read-out: Growth inhibition rate (%) Redroot pigweed
Source text: as §3, §4

rice (Oryza sativa L.) [11] = assay: Test Example 1, foliar treatment in upland pots; settings: 20th to 22nd day after application, visual, read-out: Growth inhibition rate (%) Rice
Source text: as §3, §4

[12] = test system: soybean (Glycine max Merr.); assay: Test Example 1, foliar treatment in upland pots; settings: 20th to 22nd day after application, visual, read-out: Growth inhibition rate (%) Soybean
Source text: as §3, §4

[13] = test system: velvetleaf (Abutilon theophrasti MEDIC.); assay: Test Example 1, foliar treatment in upland pots; settings: 20th to 22nd day after application, visual, read-out: Growth inhibition rate (%) Velvetleaf
Source text: as §3, §4

wheat (Triticum spp.) [14] = assay: Test Example 1, foliar treatment in upland pots; settings: 20th to 22nd day after application, visual, read-out: Growth inhibition rate (%) Wheat
Source text: as §3, §4

[15] = test system: barnyardgrass (Echinochloa crus-galli L.); assay: Test Example 2, soil application on the day after sowing; settings: 21st to 22nd day after application, visual, read-out: Growth inhibition rate (%) Barnyardgrass
Source text: (§5) Upland field soil was put into a 1/170,000 hectare pot, and seeds of various plants (barnyardgrass (Echinochloa crus-galli L.), crabgrass (Digitaria sanquinalis L.), green foxtail (Setaria viridis L.), redroot pigweed (Amaranthus retroflexus L.), prickly sida (Sida spinosa L.), velvetleaf (Abutilon theophrasti MEDIC.), rice (Oryza sativa L.), corn (Zea mays L.), soybean (Glycine max Merr.)) and wheat (Triticum spp.) were sown. On the day after sowing, wettable powders or emulsifiable concentrates of the compounds of the present invention prepared in accordance with a conventional preparation method, were weighed so that the active ingredients became the prescribed amounts, and diluted with water in an amount corresponding to 500 liter per 1 hectare, followed by soil application with a small sprayer.
(§6) On the 21st to 22nd day after the application, the state of growth of the respective plants was visually observed, and the herbicidal effect was evaluated by a growth inhibition rate (%) of from 0 (equivalent to the non-treated area) to 100% (complete kill).

corn (Zea mays L.) [16] = assay: as above; settings: 21st to 22nd day after application, visual, read-out: Growth inhibition rate (%) Corn
Source text: as §5, §6

[17] = test system: crabgrass (Digitaria sanquinalis L.); assay: as above; settings: 21st to 22nd day after application, visual, read-out: Growth inhibition rate (%) Crabgrass
Source text: as §5, §6

[18] = test system: green foxtail (Setaria viridis L.); assay: as above; settings: 21st to 22nd day after application, visual, read-out: Growth inhibition rate (%) Green foxtail
Source text: as §5, §6

[19] = test system: prickly sida (Sida spinosa L.); assay: as above; settings: 21st to 22nd day after application, visual, read-out: Growth inhibition rate (%) Prickly sida
Source text: as §5, §6

[20] = test system: redroot pigweed (Amaranthus retroflexus L.); assay: as above; settings: 21st to 22nd day after application, visual, read-out: Growth inhibition rate (%) Redroot pigweed
Source text: as §5, §6

rice (Oryza sativa L.) [21] = assay: as above; settings: 21st to 22nd day after application, visual, read-out: Growth inhibition rate (%) Rice
Source text: as §5, §6

[22] = test system: velvetleaf (Abutilon theophrasti MEDIC.); assay: as above; settings: 21st to 22nd day after application, visual, read-out: Growth inhibition rate (%) Velvetleaf
Source text: as §5, §6

wheat (Triticum spp.) [23] = assay: as above; settings: 21st to 22nd day after application, visual, read-out: Growth inhibition rate (%) Wheat
Source text: as §5, §6

[24] = test system: Japanese bulrush (Scirpus juncoides); assay: Test Example 3, paddy field pot, application to irrigated water; settings: Schoenoplectiella juncoides, applied at 0.5 leaf stage, 13th to 17th day after application, read-out: Growth inhibition rate (%) Japanese bulrush
Source text: (§7) Paddy field soil was put into a 1/1,000,000 hectare pot, and seeds of barnyardgrass (Echinochloa oryzicola vasing.) and Japanese bulrush (Scirpus juncoides) were sown and lightly covered with soil. Then, pot was left to stand in a greenhouse in a state irrigated to a water depth of from 0.5 to 1 cm, and next day or two days later, tubers of Japanese ribbon waparo (Sagittaria pygmaea) were planted. Then, the irrigated water depth was maintained to be from 3 to 4 cm, and when barnyardgrass and Japanese bulrush reached 0.5 leaf stage, and Japanese ribbon waparo reached primary leaf stage, a water diluted solution of a wettable powder or an emulsifiable concentrate of the compound of the present invention prepared in accordance with a conventional preparation method, was uniformly dropwise applied by a pipette so that the amount of active ingredients would be a prescribed amount. Further, paddy field soil was put into a 1/1,000,000 pot, followed by soil puddling to an irrigated water depth of from 3 to 4 cm. Next day, rice (Oryza sativa L.) (var.: Nihonbare) of two leaf stage was transplanted in a transplantation depth of 3 cm. On the 4th day after transplantation, the compound of the present invention was applied in the same manner as described above.
(§8) On the 13th to 17th day after application, the state of growth of barnyardgrass, Japanese bulrush and Japanese ribbon waparo was visually observed, and on the 20th to 23rd day after application, the state of growth of rice was visually observed, and the herbicidal effect was evaluated by a growth inhibition rate (%) of 0 (equivalent to the non-treated area) to 100% (complete kill).

[25] = test system: barnyardgrass (Echinochloa oryzicola vasing.); assay: as above; settings: applied at 0.5 leaf stage, 13th to 17th day after application, read-out: Growth inhibition rate (%) barnyard grass
Source text: as §7, §8

[26] = test system: rice (Oryza sativa L.) (var.: Nihonbare); assay: Test Example 3, paddy field pot, transplanted rice; settings: applied 4th day after transplantation, 20th to 23rd day after application, read-out: Growth inhibition rate (%) Rice
Source text: as §7, §8

CCn1ncc(C(=O)c2ccc(S(C)(=O)=O)c(OCCOC)c2Cl)c1O [Reference Compound 1]
inhibition at 3.5 g/ha [1]: 30%
inhibition at 7 g/ha [2]: 40%
inhibition at 3.5 g/ha [3]: 45%
inhibition at 250 g/ha ([4]; depth 0-3 cm, read-out: Growth inhibition rate (%) against sorgo, Depth (cm) from the applied surface 0-3): 58%
inhibition at 250 g/ha ([4]; depth 3-6 cm, read-out: Growth inhibition rate (%) against sorgo, Depth (cm) from the applied surface 3-6): 58%
inhibition at 250 g/ha ([4]; depth 6-9 cm, read-out: Growth inhibition rate (%) against sorgo, Depth (cm) from the applied surface 6-9): 58%
inhibition at 250 g/ha ([4]; depth 9-12 cm, read-out: Growth inhibition rate (%) against sorgo, Depth (cm) from the applied surface 9-12): 60%
inhibition at 250 g/ha ([4]; depth 12-15 cm, read-out: Growth inhibition rate (%) against sorgo, Depth (cm) from the applied surface 12-15): 53%
inhibition at 250 g/ha ([4]; depth 15-18 cm, read-out: Growth inhibition rate (%) against sorgo, Depth (cm) from the applied surface 15-18): 35%
inhibition at 250 g/ha ([4]; depth 18-21 cm, read-out: Growth inhibition rate (%) against sorgo, Depth (cm) from the applied surface 18-21): 28%
inhibition at 250 g/ha ([4]; depth 21-24 cm, read-out: Growth inhibition rate (%) against sorgo, Depth (cm) from the applied surface 21-24): 30%
inhibition at 250 g/ha ([4]; depth 24-27 cm, read-out: Growth inhibition rate (%) against sorgo, Depth (cm) from the applied surface 24-27): 28%
inhibition at 250 g/ha ([4]; depth 27-30 cm, read-out: Growth inhibition rate (%) against sorgo, Depth (cm) from the applied surface 27-30): 15%

COCCOc1c(S(C)(=O)=O)ccc(C(=O)c2c(C)nn(C(C)C)c2O)c1C [Compound No. 8-2, (5-Hydroxy-1-isopropyl-3-methyl-1H-pyrazol-4-yl)(3-(2-methoxyethoxy)-2-methyl-4-(methylsulfonyl)phenyl)ketone]
inhibition at 7 g/ha [5]: 20%
inhibition at 7 g/ha (corn (Zea mays L.) [6]): 0%
inhibition at 7 g/ha [7]: 40%
inhibition at 7 g/ha [8]: 50%
inhibition at 7 g/ha [9]: 20%
inhibition at 7 g/ha [10]: 60%
inhibition at 7 g/ha (rice (Oryza sativa L.) [11]): 0%
inhibition at 7 g/ha [12]: 10%
inhibition at 7 g/ha [13]: 60%
inhibition at 7 g/ha (wheat (Triticum spp.) [14]): 0%
inhibition at 250 g/ha [15]: 100%
inhibition at 250 g/ha (corn (Zea mays L.) [16]): 60%
inhibition at 250 g/ha [17]: 100%
inhibition at 250 g/ha [18]: 100%
inhibition at 250 g/ha [19]: 60%
inhibition at 250 g/ha [20]: 100%
inhibition at 250 g/ha (rice (Oryza sativa L.) [21]): 100%
inhibition at 250 g/ha [22]: 70%
inhibition at 250 g/ha (wheat (Triticum spp.) [23]): 20%
inhibition at 63 g/ha [24]: 70%
inhibition at 63 g/ha [25]: 40%
inhibition at 63 g/ha [26]: 10%
